Source: publication PMC9161374 (Science Translational Medicine, 2022)
Several values for one entry are separate records, joined by “and”; a condition that tells them apart may be missing. Equal values may be shown once.

Experiments:
[1] = test system: SARS-CoV-2 replicon system (pBAC-SARS-CoV-2-Replicon-Luc); assay: microbe, parasite or virus in culture; format: cell-based; conditions: for EC50 / EC90: Severe acute respiratory syndrome coronavirus 2, HEK-293T, 60 h; for EC50: read-out: EC50 (Confidence 95%), replicon; for EC90: read-out: EC90 (Confidence 95%), replicon
Vero E6 cells = assay: CCK-8 cell viability assay; format: cell-based, African green monkey; conditions: individual replicate values, Fig.S4
Experimental: To investigate the effect of drugs on cell viability, Vero E6 cells were seeded in 96-well plates at a density of 20,000 cells per well and were treated with drugs at indicated concentrations (0, 0.01, 0.1, 1, 5, 10, 50, 75, 100, 200 μM) for 48 hours. Cell viability was tested by using Cell Counting Kit-8 (CCK-8, Bimake, B34302). The figures were plotted from cell viability percentage versus the drug concentrations using GraphPad Prism 6 software.
Fig. S4. Cytotoxicity assay of compounds in Vero E6 cells.
Vero E6 cells were plated in 96-well plates and treated with increasing concentrations
of each indicated compound, ranging from 0 to 200 μM, for 48 hours. Cell viability was
tested using Cell Counting Kit-8 (CCK-8). Data are presented as mean ± SD.

[2] = Permeability and efflux ratio in Caco-2 cells; format: in vitro ADME; conditions: human; for Papp A→B: AB; for Papp B→A: BA
Description: ATV019, and ATV020 in Caco-2 cells.
Compound Caco-2 AB/BA (Papp (10-6 cm/s)) a Efflux ratio

In the case of CC(C)C(=O)Nc1ncnn2c([C@]3(C#N)O[C@H](COC(=O)C(C)C)[C@@H](OC(=O)C(C)C)[C@H]3OC(=O)C(C)C)ccc12 [ATV001], the “activity in the replicon system in comparison with parent GS-441524” value (“activity in the replicon system” below) [1] is reported as “decreased antiviral activities”.
In the case of CC(=O)Nc1ncnn2c([C@]3(C#N)O[C@H](COC(C)=O)[C@@H](OC(C)=O)[C@H]3OC(C)=O)ccc12 [ATV002], the “activity in the replicon system” value [1] is reported as “decreased antiviral activities”.
For CC(=O)OC[C@H]1O[C@@](C#N)(c2ccc3c(N)ncnn23)[C@H](OC(C)=O)[C@@H]1OC(C)=O [ATV003], the “activity in the replicon system” value [1] was “did not substantially change the activity”, the EC50 [1] was 829 nM and the EC90 [1] was 2320 nM.
In the case of CC(C)C(=O)OC[C@H]1O[C@@](C#N)(c2ccc3c(N)ncnn23)[C@H](OC(=O)C(C)C)[C@@H]1OC(=O)C(C)C [ATV004], the “activity in the replicon system” value [1] is reported as “improved the inhibitory activities”, the EC50 [1] is reported as 675 nM and the EC90 [1] is reported as 2070 nM.
For CC(=O)OC[C@H]1O[C@@](C#N)(c2ccc3c(N)ncnn23)[C@H](O)[C@@H]1O [ATV007], the EC50 [1] was 1960 nM and the EC90 [1] was 3730 nM.
Work on CCC(=O)OC[C@H]1O[C@@](C#N)(c2ccc3c(N)ncnn23)[C@H](O)[C@@H]1O [ATV008] yielded an EC50 [1] of 815 nM and an EC90 [1] of 3140 nM.
For CCCC(=O)OC[C@H]1O[C@@](C#N)(c2ccc3c(N)ncnn23)[C@H](O)[C@@H]1O [ATV0009], the “cell viability (% of control)” value (Vero E6 cells; 0.01 μM compound, 0.01 µM) was 109.752 % of control and 112.521 % of control and 116.766 % of control, the “cell viability (% of control)” value (Vero E6 cells; 0.1 μM compound, 0.1 µM) was 123.319 % of control and 106.337 % of control and 117.182 % of control and the “cell viability (% of control)” value (Vero E6 cells; 1 μM compound, 1 µM) was 116.074 % of control and 120.089 % of control and 107.814 % of control. The “cell viability (% of control)” value (Vero E6 cells; 2 μM compound, 2 µM) was 114.09 % of control and 114.182 % of control and 114.044 % of control, the “cell viability (% of control)” value (Vero E6 cells; 5 μM compound, 5 µM) was 120.412 % of control and 124.38 % of control and 128.395 % of control and the “cell viability (% of control)” value (Vero E6 cells; 10 μM compound, 10 µM) was 124.625 % of control and 120.839 % of control and 120.84 % of control. The “cell viability (% of control)” value (Vero E6 cells; 50 μM compound, 50 µM) was 90.5983 % of control and 85.7996 % of control and 95.8178 % of control.
With N#C[C@@]1(c2ccc3c(N)ncnn23)O[C@H](COC(=O)C2CC2)[C@@H](O)[C@H]1O [ATV012] the EC50 [1] was 2170 nM and the EC90 [1] was 3510 nM.
In the case of N#C[C@@]1(c2ccc3c(N)ncnn23)O[C@H](COC(=O)C2CCCC2)[C@@H](O)[C@H]1O [ATV015], the EC50 [1] is reported as 713 nM and the EC90 [1] is reported as 962 nM.
Compound N#C[C@@]1(c2ccc3c(N)ncnn23)O[C@H](COC(=O)CC(F)(F)F)[C@@H](O)[C@H]1O [ATV016] has an EC50 [1] of 830 nM and an EC90 [1] of 1230 nM.
CC(C)[C@@H](N)C(=O)OC[C@H]1O[C@@](C#N)(c2ccc3c(N)ncnn23)[C@H](O)[C@@H]1O [ATV019] showed an efflux ratio [2] of 2.47, a Papp A→B [2] of 0.28 ×10⁻⁶ cm/s and a Papp B→A [2] of 0.68 ×10⁻⁶ cm/s. For the same compound, the EC50 [1] was 974 nM and the EC90 [1] was 3810 nM.
CC(C)[C@H](N)C(=O)OC[C@H]1O[C@@](C#N)(c2ccc3c(N)ncnn23)[C@H](O)[C@@H]1O [ATV020] showed an efflux ratio [2] of 1.28, a Papp A→B [2] of 0.17 ×10⁻⁶ cm/s and a Papp B→A [2] of 0.22 ×10⁻⁶ cm/s. It also gave an EC50 [1] of 2350 nM and an EC90 [1] of 13400 nM.
CCC(C)[C@H](N)C(=O)OC[C@H]1O[C@@](C#N)(c2ccc3c(N)ncnn23)[C@H](O)[C@@H]1O (stereo partly shown) [ATV023] showed an EC50 [1] of 950 nM and an EC90 [1] of 2010 nM.
In the case of CCC(C)[C@@H](N)C(=O)OC[C@H]1O[C@@](C#N)(c2ccc3c(N)ncnn23)[C@H](O)[C@@H]1O (stereo partly shown) [ATV024], the EC50 [1] is reported as 864 nM and the EC90 [1] is reported as 1470 nM.
For CCC(CC)COC(=O)[C@H](C)N[P@](=O)(OC[C@H]1O[C@@](C#N)(c2ccc3c(N)ncnn23)[C@H](O)[C@@H]1O)Oc1ccccc1 [RDV], the “cell viability (% of control)” value (Vero E6 cells; 0.1 μM compound, 0.1 µM) was 100.353 % of control and 102.354 % of control and 103.353 % of control, the “cell viability (% of control)” value (Vero E6 cells; 1 μM compound, 1 µM) was 99.5206 % of control and 102.566 % of control and 112.154 % of control and the “cell viability (% of control)” value (Vero E6 cells; 2 μM compound, 2 µM) was 97.4544 % of control and 95.2342 % of control and 99.3423 % of control. For the same compound, the “cell viability (% of control)” value (Vero E6 cells; 5 μM compound, 5 µM) was 91.6526 % of control and 95.3187 % of control and 100 % of control, the “cell viability (% of control)” value (Vero E6 cells; 10 μM compound, 10 µM) was 93.1472 % of control and 90.0169 % of control and 88.1839 % of control and the “cell viability (% of control)” value (Vero E6 cells; 20 μM compound, 20 µM) was 90.3424 % of control and 95.3423 % of control and 99.3423 % of control. The “cell viability (% of control)” value (Vero E6 cells; 50 μM compound, 50 µM) was 80.3835 % of control and 84.2922 % of control and 85.9278 % of control.
